Consider 2 compounds from paper PMC2364737, “Phase I and pharmacokinetic (PK) study of MAG-CPT (PNU 166148): a polymeric derivative of camptothecin (CPT)” (British Journal of Cancer, 2004).

The subject of data set [1] is patients. Particulars: cited from earlier work.
The subject of data set [2] is patients with advanced solid malignancies. Nature of the data set: Phase I dose escalation study: safety, dose-limiting toxicity and MTD. Format: in vivo, human. The procedure:
This was an open-label nonrandomised dose escalation study, conducted in sequential cohorts of patients from two institutions, Aberdeen Royal Infirmary, Aberdeen, and the Beatson Oncology Centre, Glasgow. It was performed under the auspices of the Cancer Research Campaign, London, with sponsorship by Pharmacia and Upjohn, Milan.
All patients had histologically or cytologically proven advanced solid malignancy that was refractory to conventional therapy. […] All patients gave written informed consent according to local Ethics Committee guidelines.
All doses of the investigational agent are expressed as mg of CPT equivalent. The drug was stored at room temperature. The vials were reconstituted with 10 ml normal saline and the dose to be administered was made up in 100 ml saline in a PVC infusion bag.
Thereafter, dose escalation was to continue according to a modified Fibonacci series. The dose escalation scheme could, however, be modified if considered appropriate based on acquired clinical and pharmacokinetic data. The MTD was defined as the highest dose at which at least three of six patients had dose-limiting toxicity (DLT).
Patients were to be retreated at 28-day intervals for up to six cycles. […] Treatment could be delayed for up to 2 weeks to allow resolution of toxicity.
(§1) During the course of the study patients were reviewed in the clinic every week with toxicity assessment, physical examination, FBC, and serum chemistry. Tumour assessment by imaging was repeated every three cycles. Chest X-ray and ECG were repeated at the end of study.

The test system of data set [3] is advanced solid malignancy.
Text: as §1

The test system of data set [4] is colon, stomach, pancreas, ovary, breast, lung, and melanoma xenograft models. The note with it: preclinical studies; cited from earlier work.
The subject of data set [5] is patients. Particulars: first 3 days of a 28-day cycle; ref Schoemaker et al, 2002; cited from earlier work.

As for `CC[C@@]1(O)C(=O)OCc2c1cc1n(c2=O)Cc2cc3ccccc3nc2-1` [Camptothecin], in the data set with patients [1] (colorectal cancer, small bowel carcinoma, and melanoma), the “responses in early clinical trials” value is “responses to CPT were observed”. Besides, the “unpredictable and severe toxicity in early clinical trials” value with patients [1] (ref Gottlieb et al, 1970, Muggia et al, 1972) is “myelosuppression, gastrointestinal toxicity, and haemorrhagic cystitis”.

Take “copolymer of N-(hydroxypropyl) methacrylamide, (20-O-(N-methacryloyl-glycyl-aminohexanoyl-glycyl)) camptothecin and N-(2-hydroxypropyl) methacryloyl glycinamide [MAG-CPT]”: in data set [2] (200 mg m^−2), the “patients with grade 2 dysuria and haematuria during cycle 2” value is recorded as “one of the eight patients”. Further, in data set [2] (30-min infusion once every 4 weeks, dose as mg equivalent camptothecin), the “dose recommended for phase II / further clinical study” value worked out at 200 mg m^−2. Moreover, the “nausea and vomiting grade 1” value in data set [2] (dose levels 30–120 mg m^−2) is recorded as “observed sporadically”. Moreover, the “antitumour effect in a patient with renal carcinoma” value in data set [3] (60 mg m^−2, patient had progressive disease with brain metastases) is given as “regression of cutaneous metastases was observed”. For the same compound, the objective antitumour responses entry in data set [3] (all dose levels, 23 patients) is “No objective antitumour responses were seen”. Also, the “activity in xenograft models” value in data set [4] is reported as “active”. Moreover, in the data set on patients [5], the antitumour activity result was “no evidence of antitumour activity”.
